Data as given in publication PMC7501296, “Rapid and direct control of target protein levels with VHL-recruiting dTAG molecules” (Nature Communications, 2020).
“And” between values parts separate entries of the source, which are not always exact repeats. Equal entries are not always repeated.

Experiments:
[1] = system: PATU-8902 FKBP12^F36V-KRAS^G12V; KRAS^-/- clone; experiment: Antiproliferation, PATU-8902 FKBP12F36V-KRASG12V; KRAS-/- clone, 2D-monolayer (CellTiter-Glo); format: cell-based
FKBP12^F36V-Nluc = target: T1, FKBP12^F36V-Nluc (Homo sapiens, UniProt P62942, F37V); experiment: FKBP12F36V-Nluc dual luciferase assay (293FT); format: cell-based; settings: 293FT, 24 h
T1 construct: expressed in transfected cells; host or cells: 293FT
T1 sequence (P62942 2-108 F37V limits assumed): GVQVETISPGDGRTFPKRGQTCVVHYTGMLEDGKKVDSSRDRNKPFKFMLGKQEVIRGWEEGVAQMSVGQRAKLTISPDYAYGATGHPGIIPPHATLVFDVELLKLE
In short: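 293FT cells expressing FKBP12^WT-Nluc or FKBP12^F36V-Nluc with Fluc were treated with compound for 24 h at 37 °C. Fluc, then Nluc, luminescence was read with Dual-Glo reagents. Values are DMSO-normalised Nluc/Fluc ratios.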

[2] = system: PATU-8902 LACZ-FKBP12^F36V clone; experiment: Antiproliferation, PATU-8902 LACZ-FKBP12F36V clone, 2D-monolayer (CellTiter-Glo); format: cell-based
In short: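 Viability of cells grown as 2D-adherent monolayers was determined with the CellTiter-Glo luminescent reagent (Promega). Luminescence signals were read on either an Envision 2104 plate reader (PerkinElmer) or a Fluostar Omega Reader (BMG Labtech), and the resulting data were processed and analyzed in GraphPad PRISM v8 software.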

[3] = system: PATU-8902 LACZ-FKBP12^F36V clone; experiment: Antiproliferation, PATU-8902 LACZ-FKBP12F36V clone, 3D-spheroid (CellTiter-Glo); format: cell-based; settings: 120 h
In short: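 Viability of cells grown as ultra-low adherent 3D-spheroids was determined with the CellTiter-Glo reagent (Promega). Luminescence was read on either an Envision 2104 plate reader (PerkinElmer) or a Fluostar Omega Reader (BMG Labtech). The resulting data were analyzed with GraphPad PRISM v8.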

luciferase-FKBP12^F36V = target: T2, luciferase-FKBP12^F36V (Homo sapiens, UniProt P62942, F37V); experiment: Pharmacodynamic evaluation: bioluminescence of MV4;11 luc-FKBP12F36V cells in mice; format: in vivo, mice (NSG); set-up: Total flux for each mouse: unit not given here; settings: for Total flux for each mouse: single mice
T2 construct: luciferase (fusion partner); expressed in transfected cells; host or cells: MV4;11 cells transplanted into NSG mice
T2 sequence (P62942 2-108 F37V limits assumed): as above
Description: For IP injections, dTAG-13 and dTAG^V-1 were formulated by dissolving into DMSO and then diluting with 20% solutol (Sigma): 0.9% sterile saline (Moltox) (w:v) with the final formulation containing 5% DMSO. […] Formulations were stable at room temperature for 7 days. For IV injections, dTAG-13 and dTAG^V-1 were formulated by dissolving into DMSO and then diluting with 5% solutol (Sigma): 0.9% sterile saline (Moltox) (w:v) with the final formulation containing 5% DMSO.
All procedures for PD studies were compliant with ethical regulations for animal testing and research, and were approved by and performed in accordance with standards of the IACUC at Dana–Farber Cancer Institute. Housing conditions for mice at Dana–Farber Cancer Institute were as follows: lights on = 6 AM, lights off = 6 PM, average ambient temperature = 72 °F, and average humidity = 35–55%. Evaluation of degradation of luciferase in vivo was performed using MV4;11 luc-FKBP12^F36V cells and bioluminescent measurements[6],[48]. In brief, 250,000 viable MV4;11 luc-FKBP12^F36V cells were transplanted by tail-vein injection in 8-week-old immunocompromised female mice (NOD.Cg-Prkdc^scidIl2rg^tm1Wjl/SzJ, NSG; Jackson Laboratory, #005557). Bioluminescent measurements were performed following IP injection of 75 mg kg^−1 D-Luciferin (Promega). Mice were then anesthetized with 2−3% isoflurane, imaged on an IVIS Spectrum (Caliper Life Sciences), and total body bioluminescence was determined using a standardized region of interest. Two and seven days after tail-vein injection, bioluminescent measurements were performed to confirm engraftment. […] For treatments, compounds were formulated as described above, administered via IP injection and bioluminescent measurements were performed daily as described in Fig. 2d, beginning 8 days after tail-vein injection.

[4] = log10[compound] (M) -5.69897, replicate values
[5] = log10[compound] (M) -6.19897, replicate values
[6] = log10[compound] (M) -6.69897, replicate values
[7] = log10[compound] (M) -7.19897, replicate values
[8] = log10[compound] (M) -7.69897, replicate values
[9] = log10[compound] (M) -8.19897, replicate values
[10] = log10[compound] (M) -8.69897, replicate values
[11] = log10[compound] (M) -9.19897, replicate values
[12] = log10[compound] (M) -9.69897, replicate values
[13] = log10[compound] (M) -10.199, replicate values

CC[C@H](C(=O)N1CCCC[C@H]1C(=O)O[C@H](CCc1ccc(OC)c(OC)c1)c1ccccc1OCC(=O)NCCCCCCC(=O)N[C@H](C(=O)N1C[C@H](O)C[C@H]1C(=O)N[C@@H](C)c1ccc(-c2scnc2C)cc1)C(C)(C)C)c1cc(OC)c(OC)c(OC)c1 [dTAG^V-1]
DMSO-normalized antiproliferation ([1]; log10[compound] (M) -4.69897): 20.6105 and 17.3638 and 20.4315 and 22.7846
DMSO-normalized antiproliferation ([1]; log10[compound] (M) -5.19897): 21.3993 and 17.4773 and 18.2 and 18.6602
DMSO-normalized antiproliferation ([1]; log10[compound] (M) -5.69897): 16.8112 and 15.7934 and 16.8516 and 16.7935
DMSO-normalized antiproliferation [1, 4]: 4.6597 and 4.418 and 4.149 and 3.87
DMSO-normalized antiproliferation ([1]; log10[compound] (M) -6.19897): 20.0987 and 17.9241 and 20.6309 and 19.478
DMSO-normalized antiproliferation [1, 5]: 5.446 and 5.94 and 6.406 and 4.294
DMSO-normalized antiproliferation ([1]; log10[compound] (M) -6.69897): 25.9066 and 20.9075 and 21.5913 and 21.1711
DMSO-normalized antiproliferation [1, 6]: 8.244 and 7.637 and 8.006 and 6.772
DMSO-normalized antiproliferation ([1]; log10[compound] (M) -7.19897): 27.2696 and 25.1897 and 32.757 and 26.1725
DMSO-normalized antiproliferation [1, 7]: 9.134 and 8.1 and 7.928 and 7.914
DMSO-normalized antiproliferation ([1]; log10[compound] (M) -7.69897): 32.5281 and 28.8466 and 33.2484 and 29.8055
DMSO-normalized antiproliferation [1, 8]: 23.295 and 23.6499 and 25.1438 and 20.7638
DMSO-normalized antiproliferation ([1]; log10[compound] (M) -8.19897): 71.5602 and 70.7086 and 72.3533 and 72.4741
DMSO-normalized antiproliferation [1, 9]: 58.7893 and 63.6738 and 62.8905 and 55.3819
DMSO-normalized antiproliferation ([1]; log10[compound] (M) -8.69897): 90.0484 and 84.5598 and 93.7922 and 91.6223
DMSO-normalized antiproliferation [1, 10]: 97.0333 and 109.013 and 119.265 and 75.6713
DMSO-normalized antiproliferation ([1]; log10[compound] (M) -9.19897): 99.7014 and 102.892 and 91.8028 and 106.019
DMSO-normalized antiproliferation [1, 11]: 104.958 and 110.142 and 126.275 and 110.446
DMSO-normalized antiproliferation [1, 12]: 77.7582 and 88.137 and 113.958 and 92.6055
DMSO-normalized antiproliferation [1, 13]: 96.7023 and 108.197 and 96.9121 and 90.9372
Degradation of FKBP12F36V-Nluc (in words) (FKBP12^F36V-Nluc): potent degradation
DMSO-normalized antiproliferation [2, 4]: 35.4292 and 29.4521 and 35.0517 and 31.6104
DMSO-normalized antiproliferation [2, 5]: 87.2455 and 81.8203 and 77.0995 and 64.2664
DMSO-normalized antiproliferation ([2]; log10[compound] (M) -6.69897): 102.668 and 99.5089 and 89.7578 and 106.231
DMSO-normalized antiproliferation [2, 6]: 124.825 and 81.8259 and 133.331 and 119.877
DMSO-normalized antiproliferation ([2]; log10[compound] (M) -7.19897): 90.1193 and 111.795 and 91.2446 and 98.3924
DMSO-normalized antiproliferation [2, 7]: 118.009 and 93.8067 and 130.572 and 123.376
DMSO-normalized antiproliferation ([2]; log10[compound] (M) -7.69897): 112.909 and 117.897 and 108.192 and 99.266
DMSO-normalized antiproliferation [2, 8]: 133.195 and 132.373 and 134.672 and 120.383
DMSO-normalized antiproliferation ([2]; log10[compound] (M) -8.19897): 101.415 and 100.309 and 97.138 and 102.461
DMSO-normalized antiproliferation [2, 9]: 136.88 and 106.56 and 99.7166 and 163.283
DMSO-normalized antiproliferation ([2]; log10[compound] (M) -8.69897): 103.413 and 90.0724 and 92.9073 and 97.9489
DMSO-normalized antiproliferation [2, 10]: 148.548 and 115.202 and 143.359 and 119.836
DMSO-normalized antiproliferation [2, 11]: 116.491 and 96.4785 and 115.962 and 80.4138
DMSO-normalized antiproliferation [2, 12]: 139.57 and 103.845 and 96.4961 and 122.632
DMSO-normalized antiproliferation [2, 13]: 133.817 and 113.621 and 96.1958 and 88.4566
DMSO-normalized antiproliferation ([3]; log10[compound] (M) -5.69897, single replicates): 79.9207 and 69.7647 and 81.656 and 63.0972
DMSO-normalized antiproliferation ([3]; log10[compound] (M) -6.19897, single replicates): 90.8255 and 93.4576 and 97.8876 and 88.6015
DMSO-normalized antiproliferation ([3]; log10[compound] (M) -6.69897, single replicates): 116.805 and 103.649 and 110.913 and 111.967
DMSO-normalized antiproliferation ([3]; log10[compound] (M) -7.19897, single replicates): 115.092 and 118.114 and 123.495 and 124.235
DMSO-normalized antiproliferation ([3]; log10[compound] (M) -7.69897, single replicates): 125.383 and 125.544 and 131.956 and 99.7395
DMSO-normalized antiproliferation ([3]; log10[compound] (M) -8.19897, single replicates): 91.6326 and 122.778 and 124.271 and 121.832
DMSO-normalized antiproliferation ([3]; log10[compound] (M) -8.69897, single replicates): 107.048 and 111.088 and 112.061 and 114.671
DMSO-normalized antiproliferation ([3]; log10[compound] (M) -9.19897, single replicates): 123.177 and 113.909 and 103.784 and 113.953
DMSO-normalized antiproliferation ([3]; log10[compound] (M) -9.69897, single replicates): 118.276 and 100.412 and 114.859 and 101.744
DMSO-normalized antiproliferation ([3]; log10[compound] (M) -10.199, single replicates): 96.4797 and 95.686 and 104.084 and 100.448
Bioluminescent signal 4 h after each of the three administrations (luciferase-FKBP12^F36V; 35 mg kg^−1 IP): Consistent loss of bioluminescent signal
Bioluminescent signal 4 h after the first administration (luciferase-FKBP12^F36V; 35 mg kg^−1 IP): Striking loss of bioluminescent signal
Duration of degradation (luciferase-FKBP12^F36V; 35 mg kg^−1 IP, after the final administration): degradation evident 28 h after the final administration
Total flux for each mouse (luciferase-FKBP12^F36V; Baseline (day 0, before treatment), MV4;11 luc-FKBP12F36V): 1893000 and 1330000 and 3116000 and 1809000 and 3338000
Total flux for each mouse (luciferase-FKBP12^F36V; No treatment (day 4), 28 h after third and final treatment): 601200 and 13590000 and 24710000 and 1755000 and 24650000
Total flux for each mouse (luciferase-FKBP12^F36V; Treatment #1 (day 1), 4 h after 35 mg kg^−1 IP): 4041000 and 2159000 and 3736000 and 2539000 and 5912000
Total flux for each mouse (luciferase-FKBP12^F36V; Treatment #2 (day 2), 4 h after 35 mg kg^−1 IP): 3135000 and 1001000 and 2876000 and 2693000 and 9211000
Total flux for each mouse (luciferase-FKBP12^F36V; Treatment #3 (day 3), 4 h after 35 mg kg^−1 IP): 4741000 and 1924000 and 4372000 and 3069000 and 6943000
